Data as given in patent US8399465B2, “Compounds with two fused bicyclic heteroaryl moieties as modulators of leukotriene A4 hydrolase” (Janssen Pharmaceutica NV, priority 2009, dated 2013).
Structures can show the parent of a compound that is named as a salt.

biological target: T1, recombinant human LTA4 hydrolase (rhLTA4H) (Homo sapiens, UniProt P09960); assay: Recombinant human LTA4 hydrolase assay for LTA4 hydrolase inhibitor activity; type: biochemical; details: not given
T1 construct: made in house; host or cells: Spodoptera frugiperda (Sf-9) cells, baculovirus (pFastBac1)
T1 sequence (P09960 1-611): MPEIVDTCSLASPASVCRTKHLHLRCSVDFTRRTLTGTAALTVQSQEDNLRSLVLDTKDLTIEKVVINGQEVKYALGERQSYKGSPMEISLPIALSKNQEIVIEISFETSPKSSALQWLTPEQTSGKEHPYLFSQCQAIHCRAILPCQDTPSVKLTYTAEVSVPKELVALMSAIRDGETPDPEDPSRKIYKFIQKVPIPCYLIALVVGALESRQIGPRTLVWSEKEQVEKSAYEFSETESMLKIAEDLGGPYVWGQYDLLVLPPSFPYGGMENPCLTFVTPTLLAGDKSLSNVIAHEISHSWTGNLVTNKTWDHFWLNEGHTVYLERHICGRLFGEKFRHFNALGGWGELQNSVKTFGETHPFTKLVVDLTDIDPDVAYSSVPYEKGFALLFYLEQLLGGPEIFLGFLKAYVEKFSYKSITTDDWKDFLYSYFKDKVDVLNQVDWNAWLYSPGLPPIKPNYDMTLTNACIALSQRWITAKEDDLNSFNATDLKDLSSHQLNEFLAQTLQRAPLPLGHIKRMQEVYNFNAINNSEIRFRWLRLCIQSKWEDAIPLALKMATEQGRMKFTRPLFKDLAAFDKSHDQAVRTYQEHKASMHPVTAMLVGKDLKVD
Experimental: Assay 1: Recombinant Human LTA4 Hydrolase Assay for LTA4 Hydrolase Inhibitor Activity
Compounds of the present invention were tested for LTA4 hydrolase inhibitor activity against recombinant human LTA4 hydrolase (rhLTA4H). Vectors were prepared and used to express rhLTA4H essentially as follows: LTA4 hydrolase encoding DNA was amplified by polymerase chain reaction (PCR) using a human placental cDNA library as a template. […] The amplified 1.9 kb DNA fragment encoding LTA4 hydrolase was isolated and cloned into the pFastBac1 vector (Invitrogen). Recombinant baculovirus was generated as described by the manufacturer, and used to infect Spodoptera frugiperda (Sf-9) cells. […] The purified enzyme solution was adjusted to contain 0.29 mg/mL LTA4 hydrolase, 50 mM Tris (pH 8.0), 150 mM NaCl, 5 mM dithiothreitol, 50% glycerol, and EDTA-free Complete protease inhibitor cocktail (Roche).
LTA4 substrate was prepared from the methyl ester of LTA4 (Cayman Chemical) by treatment with 67 equiv of NaOH under nitrogen at rt for 40 min. The LTA4 substrate in its free acid form was kept frozen at −80° C. until needed. Each compound was diluted to different concentrations in assay buffer (from Assay Designs) containing 10% DMSO. A 25-μL aliquot of each compound dilution was incubated for 10 min at rt with an equal volume of assay buffer containing 10 ng of recombinant human LTA4H. The solution was then adjusted to 200 μL with assay buffer. […] Each reaction was carried out at rt for 30 min. The reaction was stopped by diluting 10 μL of the reaction mixture with 200 μL of assay buffer. LTB4 was quantified in the diluted sample by a commercially available enzyme-linked immunoassay (Cayman Chemical Co.), as recommended by the manufacturer. Positive controls, under essentially identical conditions but without addition of an inhibitor compound, and negative controls, containing all assay components except enzyme, were routinely run in each experiment. IC50 values were determined by nonlinear regression of the activity data at different compound concentrations using Graphpad Prism 4.0, one site binding competition.
The values presented here are the result of a single determination or an average of two or more determinations. Compounds that were not tested are indicated as such by a “NT” designation.

Structure (SMILES) | IC50
CC(=O)N1C[C@@H]2C[C@H]1CN2Cc1cc2cc(Oc3nc4cnccc4s3)ccc2o1 [Example 199, (1S,4S)-1-{5-[5-(Thiazolo[4,5-c]pyridin-2-yloxy)-benzofuran-2-ylmethyl]-2,5-diaza-bicyclo[2.2.1]hept-2-yl}-ethanone formate] | 338 nM

same assay, conditions: rhLTA4H, LTB4 by immunoassay; single determination or average of two or more; mark after value = form tested: ′ free base, ″ hydrochloride, ^ formate; read-out: IC50

Structure (SMILES) | IC50
CC(=O)N1C[C@@H]2C[C@H]1CN2Cc1cc2ccc(Oc3nc4cccnc4s3)cc2o1 [Example 122, (1S,4S)-1-{5-[6-(Thiazolo[5,4-b]pyridin-2-yloxy)-benzofuran-2-ylmethyl]-2,5-diaza-bicyclo[2.2.1]hept-2-yl}-ethanone] | 3430 nM
CC(=O)N1C[C@H]2CC[C@@H](C1)N2Cc1cc2cc(Oc3nc4cccnc4s3)ccc2o1 [Example 123, meso-1-{8-[5-(Thiazolo[5,4-b]pyridin-2-yloxy)-benzofuran-2-ylmethyl]-3,8-diaza-bicyclo[3.2.1]oct-3-yl}-ethanone] | 89 nM
CC(=O)N1C[C@H]2CC[C@@H](C1)N2Cc1cc2ccc(Oc3nc4cccnc4s3)cc2o1 [Example 124, meso-1-{8-[6-(Thiazolo[5,4-b]pyridin-2-yloxy)-benzofuran-2-ylmethyl]-3,8-diaza-bicyclo[3.2.1]oct-3-yl}-ethanone] | 1470 nM
CC(=O)N[C@H]1C[C@H]2CC[C@@H](C1)N2Cc1cc2cc(Oc3nc4cccnc4s3)ccc2o1 [Example 125, meso-endo-N-{8-[5-(Thiazolo[5,4-b]pyridin-2-yloxy)-benzofuran-2-ylmethyl]-8-aza-bicyclo[3.2.1]oct-3-yl}-acetamide] | 200 nM
CC(=O)N[C@H]1C[C@H]2CC[C@@H](C1)N2Cc1cc2ccc(Oc3nc4cccnc4s3)cc2o1 [Example 126, meso-endo-N-{8-[6-(Thiazolo[5,4-b]pyridin-2-yloxy)-benzofuran-2-ylmethyl]-8-aza-bicyclo[3.2.1]oct-3-yl}-acetamide] | 610 nM
NC(=O)NC1CCN(Cc2cc3ccc(Oc4nc5ncccc5s4)cc3o2)C1 (stereo not drawn) [Example 127, 1-(1-{[6-([1,3]Thiazolo[4,5-b]pyridin-2-yloxy)-1-benzofuran-2-yl]methyl}pyrrolidin-3-yl)urea formate] | 62 nM
CS(=O)(=O)NC1CCN(Cc2cc3ccc(Oc4nc5ncccc5s4)cc3o2)C1 (stereo not drawn) [Example 128, N-(1-{[6-([1,3]thiazolo[4,5-b]pyridin-2-yloxy)-1-benzofuran-2-yl]methyl}pyrrolidin-3-yl)methanesulfonamide formate] | 84 nM
CC(=O)N1C[C@H]2CC[C@@H](C1)N2CCc1coc2cc(Oc3nc4ncccc4s3)ccc12 [Example 130, meso-1-(8-{2-[6-(Thiazolo[4,5-b]pyridin-2-yloxy)-benzofuran-3-yl]-ethyl}-3,8-diaza-bicyclo[3.2.1]oct-3-yl)-ethanone] | 5 nM
CC(=O)N[C@H]1C[C@H]2CC[C@@H](C1)N2CCc1coc2cc(Oc3nc4ncccc4s3)ccc12 [Example 131, meso-endo-N-(8-{2-[6-(Thiazolo[4,5-b]pyridin-2-yloxy)-benzofuran-3-yl]-ethyl}-8-aza-bicyclo[3.2.1]oct-3-yl)acetamide] | 5 nM
c1ccc2sc(Oc3ccc4cc(CN5CCCCC5)sc4c3)nc2c1 [Example 132, 2-(2-Piperidin-1-ylmethyl-benzo[b]thiophen-6-yloxy)-benzothiazole] | 720 nM
c1ccc2sc(Oc3ccc4cc(CN5CCOCC5)sc4c3)nc2c1 [Example 133, (2-Morpholin-4-ylmethyl-benzo[b]thiophen-6-yloxy)-benzothiazole] | 473 nM
c1cnc2nc(Oc3ccc4cc(CN5CCCCC5)sc4c3)sc2c1 [Example 136, 2-(2-Piperidin-1-ylmethyl-benzo[b]thiophen-6-yloxy)-thiazolo[4,5-b]pyridine] | 117 nM
NC(=O)C1CCN(Cc2cc3ccc(Oc4nc5ncccc5s4)cc3s2)CC1 [Example 138, 1-[6-(Thiazolo[4,5-b]pyridin-2-yloxy)-benzo[b]thiophen-2-ylmethyl]-piperidine-4-carboxylic acid amide] | 169 nM
CCOC(=O)C1CCN(CCc2coc3cc(Oc4nc5ccccc5s4)ccc23)CC1 [Example 149, 1-{2-[6-(Benzothiazol-2-yloxy)-benzofuran-3-yl]-ethyl}-piperidine-4-carboxylic acid ethyl ester] | 170 nM
FC(F)(F)C1CCN(Cc2coc3cc(Oc4nc5ncccc5s4)ccc23)CC1 [Example 163, 2-[3-(4-Trifluoromethyl-piperidin-1-ylmethyl)-benzofuran-6-yloxy]-thiazolo[4,5-b]pyridine] | 107 nM
CC(=O)N1CCCC2(CCN(Cc3cc4cc(Oc5nc6ncccc6s5)ccc4o3)C2)C1 (stereo not drawn) [Example 166, 1-{2-[5-(Thiazolo[4,5-b]pyridin-2-yloxy)-benzofuran-2-ylmethyl]-2,7-diaza-spiro[4.5]dec-7-yl}-ethanone] | 286 nM
NC(=O)N1C[C@H]2CC[C@@H](C1)N2Cc1cc2cc(Oc3nc4ccccc4s3)ccc2o1 [Example 173, meso-8-[5-(Benzothiazol-2-yloxy)-benzofuran-2-ylmethyl]-3,8-diaza-bicyclo[3.2.1]octane-3-carboxylic acid amide] | 187 nM
FC1CCN(Cc2cc3ccc(Oc4nc5ncccc5s4)cc3o2)CC1 [Example 190, 2-[2-(4-Fluoro-piperidin-1-ylmethyl)-benzofuran-6-yloxy]-thiazolo[4,5-b]pyridine formate] | 116 nM
CC(=O)N[C@H]1C[C@H]2CC[C@@H](C1)N2Cc1cc2cc(Oc3nc4cnccc4s3)ccc2o1 [Example 200, meso-endo-N-{8-[5-(Thiazolo[4,5-c]pyridin-2-yloxy)-benzofuran-2-ylmethyl]-8-aza-bicyclo[3.2.1]oct-3-yl}-acetamide formate] | 1130 nM
CC(=O)N[C@H]1C[C@H]2CC[C@@H](C1)N2Cc1cc2ccc(Oc3nc4cnccc4s3)cc2o1 [Example 201, meso-endo-N-{8-[6-(Thiazolo[4,5-c]pyridin-2-yloxy)-benzofuran-2-ylmethyl]-8-aza-bicyclo[3.2.1]oct-3-yl}-acetamide] | 236 nM
CC(=O)N1C[C@@H]2C[C@H]1CN2Cc1cc2ccc(Oc3nc4cnccc4s3)cc2o1 [Example 203, (1S,4S)-1-{5-[6-(Thiazolo[4,5-c]pyridin-2-yloxy)-benzofuran-2-ylmethyl]-2,5-diaza-bicyclo[2.2.1]hept-2-yl}-ethanone] | 2570 nM
CNC(=O)C1CCN(Cc2cc3ccc(Oc4nc5ncccc5s4)cc3o2)CC1 [Example 204, 1-[6-(Thiazolo[4,5-b]pyridin-2-yloxy)-benzofuran-2-ylmethyl]-piperidine-4-carboxylic acid methylamide] | 169 nM
O=C(C1CCN(Cc2cc3ccc(Oc4nc5ncccc5s4)cc3o2)CC1)N1CCCC1 [Example 205, Pyrrolidin-1-yl-{1-[6-(thiazolo[4,5-b]pyridin-2-yloxy)-benzofuran-2-ylmethyl]-piperidin-4-yl}-methanone] | 120 nM
CC(=O)N1C[C@@H]2C[C@H]1CN2Cc1coc2cc(Oc3nc4cccnc4s3)ccc12 [Example 221, (1S,4S)-1-{5-[6-(Thiazolo[5,4-b]pyridin-2-yloxy)-benzofuran-3-ylmethyl]-2,5-diaza-bicyclo[2.2.1]hept-2-yl}-ethanone] | 227 nM
CC(=O)N1C[C@@H]2C[C@H]1CN2Cc1coc2cc(Oc3nc4cnccc4s3)ccc12 [Example 222, (1S,4S)-1-{5-[6-(Thiazolo[4,5-c]pyridin-2-yloxy)-benzofuran-3-ylmethyl]-2,5-diaza-bicyclo[2.2.1]hept-2-yl}-ethanone] | 365 nM
CCOC(=O)C1CCN(Cc2coc3cc(Oc4nc5ccccc5s4)ccc23)CC1 [Example 223, 1-[6-(Benzothiazol-2-yloxy)-benzofuran-3-ylmethyl]-piperidine-4-carboxylic acid ethyl ester] | 175 nM
